Assay results taken from ChEMBL document CHEMBL1132702, “5'-N-substituted carboxamidoadenosines as agonists for adenosine receptors” (J Med Chem, 1999).

Legend:
Adenosine receptor A2b = molecular target: T1, Adenosine receptor A2b (Homo sapiens, UniProt P29275); assay: Effective concentration for cAMP production in CHO-KI cells stably transfected with human adenosine A2B receptor cDNA
T1 sequence (P29275 whole entry): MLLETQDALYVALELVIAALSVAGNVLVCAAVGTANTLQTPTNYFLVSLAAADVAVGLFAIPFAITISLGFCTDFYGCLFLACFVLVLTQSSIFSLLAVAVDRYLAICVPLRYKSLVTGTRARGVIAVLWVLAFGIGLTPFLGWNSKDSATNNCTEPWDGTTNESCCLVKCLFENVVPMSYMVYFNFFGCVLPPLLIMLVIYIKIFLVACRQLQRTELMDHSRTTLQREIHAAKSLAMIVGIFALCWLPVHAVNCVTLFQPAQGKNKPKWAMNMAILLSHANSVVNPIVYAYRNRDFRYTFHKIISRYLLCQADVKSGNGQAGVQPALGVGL

Adenosine receptor A1 [1] = molecular target: T2, Adenosine receptor A1 (Rattus norvegicus, UniProt P25099); assay: Ability to displace radioligand [3H]- DPCPX from adenosine A1 receptor on rat cortical membrane in the presence of 1 mM of GTP
T2 sequence (P25099 whole entry): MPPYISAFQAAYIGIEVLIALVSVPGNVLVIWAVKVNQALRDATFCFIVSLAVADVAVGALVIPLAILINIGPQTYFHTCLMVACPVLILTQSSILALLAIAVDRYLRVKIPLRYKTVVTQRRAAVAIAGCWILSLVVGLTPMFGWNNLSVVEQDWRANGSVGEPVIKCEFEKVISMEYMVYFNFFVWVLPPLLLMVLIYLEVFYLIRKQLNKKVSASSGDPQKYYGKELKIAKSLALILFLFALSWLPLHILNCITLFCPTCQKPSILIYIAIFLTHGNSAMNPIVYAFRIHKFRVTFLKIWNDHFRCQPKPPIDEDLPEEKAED

Adenosine receptor A3 = molecular target: T3, Adenosine receptor A3 (Homo sapiens, UniProt P0DMS8); assay: Ability to displace radioligand [125I]AB-MECA from membrane of HEK 293 cells stably transfected with human adenosine A3 receptor cDNA; assay type: cell membranes, HEK293
T3 sequence (P0DMS8 whole entry): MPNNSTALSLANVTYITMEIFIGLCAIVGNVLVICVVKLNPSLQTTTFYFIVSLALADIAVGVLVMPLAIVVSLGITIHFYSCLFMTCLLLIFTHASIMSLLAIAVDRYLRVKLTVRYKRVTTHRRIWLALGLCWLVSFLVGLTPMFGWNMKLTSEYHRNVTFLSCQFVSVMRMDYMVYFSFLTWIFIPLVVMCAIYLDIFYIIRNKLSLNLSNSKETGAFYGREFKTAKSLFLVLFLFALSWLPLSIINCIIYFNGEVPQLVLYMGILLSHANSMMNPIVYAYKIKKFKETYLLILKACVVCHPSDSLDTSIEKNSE

[2] = GTP shift was determined
Adenosine receptor A1 [3] = molecular target: T2, Adenosine receptor A1
Description: Ability to displace radioligand [3H]- DPCPX from adenosine A1 receptor on rat cortical membrane in the absence of GTP

Adenosine receptor A2a = Adenosine receptor A2a (Rattus norvegicus, UniProt P30543)
Adenosine receptor A2a, sequence (P30543 whole entry): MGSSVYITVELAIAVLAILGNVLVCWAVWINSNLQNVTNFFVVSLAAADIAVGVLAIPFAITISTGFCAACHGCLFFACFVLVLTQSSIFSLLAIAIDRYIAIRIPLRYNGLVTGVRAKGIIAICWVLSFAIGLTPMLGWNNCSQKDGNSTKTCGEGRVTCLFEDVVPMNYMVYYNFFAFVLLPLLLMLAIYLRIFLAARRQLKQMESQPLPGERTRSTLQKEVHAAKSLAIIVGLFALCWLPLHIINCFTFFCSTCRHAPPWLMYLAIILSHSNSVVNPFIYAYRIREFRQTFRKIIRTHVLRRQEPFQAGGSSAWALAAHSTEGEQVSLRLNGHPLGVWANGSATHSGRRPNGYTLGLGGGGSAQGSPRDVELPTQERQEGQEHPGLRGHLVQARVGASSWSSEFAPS

[4] = molecular target: T4, Adenosine receptor A2b (Homo sapiens) (UniProt P29275); assay: Effective concentration for cAMP production in CHO-KI cells expressing human adenosine A2B receptor at 100 uM; assay type: functional, cell-based
T4 sequence (whole entry): T1 sequence (P29275 whole entry)

Row | EC50 (Adenosine receptor A2b) | Ki (Adenosine receptor A1 [1]) | Ki (Adenosine receptor A3) | GTP shift [2] | Ki (Adenosine receptor A1 [3]) | Ki (Adenosine receptor A2a) | Emax [4] | SMILES
1 | 54000 nM | 4900 nM | 32 nM | 6.4 | 770 nM | 610 nM |  | Nc1ncnc2c1ncn2[C@@H]1O[C@H](C(=O)NC2CCCC2)[C@@H](O)[C@H]1O
2 | 45000 nM | 1960 nM | 85.3 nM | 2.4 | 1620 nM | 623 nM |  | CONC(=O)[C@H]1O[C@@H](n2cnc3c(N)ncnc32)[C@H](O)[C@@H]1O
3 | 37000 nM | 804 nM | 211 nM | 3.1 | 257 nM | 160 nM |  | CC(C)NC(=O)[C@H]1OC(n2cnc3c(N)ncnc32)[C@H](O)[C@@H]1O (some centres not stated)
4 | 33000 nM |  | 23 nM |  |  | 49 nM |  | Nc1ncnc2c1ncn2[C@@H]1O[C@H](C(=O)NC2CCC2)[C@@H](O)[C@H]1O
5 | 45000 nM | 6840 nM | 6.4 nM |  | 1080 nM |  |  | CNC(=O)[C@H]1O[C@@H](n2cnc3c(N)ncnc32)[C@H](O)[C@@H]1O
6 | 13000 nM | 459 nM | 2280 nM | 3.4 | 137 nM | 130 nM |  | Nc1ncnc2c1ncn2[C@@H]1O[C@H](C(=S)NC2CC2)[C@@H](O)[C@H]1O
7 | 5300 nM |  | 108 nM |  |  |  |  | Nc1ncnc2c1ncn2[C@@H]1O[C@H](C(=O)NC2CC2)[C@@H](O)[C@H]1O

More lines, now with the values behind:

Row | SMILES | EC50 (Adenosine receptor A2b) | Ki (Adenosine receptor A1 [1]) | Ki (Adenosine receptor A3) | GTP shift [2] | Ki (Adenosine receptor A1 [3]) | Ki (Adenosine receptor A2a) | Emax [4]
8 | CCNC(=S)[C@H]1O[C@@H](n2cnc3c(N)ncnc32)[C@H](O)[C@@H]1O | 16000 nM | 478 nM | 569 nM | 3.4 | 141 nM | 130 nM | 
9 | CNC(=O)[C@H]1O[C@@H](n2cnc3c(NCc4cccc(I)c4)ncnc32)[C@H](O)[C@@H]1O [IB-MECA] | 11000 nM |  |  |  |  |  | 
10 | CC(C)(C)NC(=O)[C@H]1O[C@@H](n2cnc3c(N)ncnc32)[C@H](O)[C@@H]1O |  | 6950 nM | 8500 nM | 2.6 | 2730 nM | 1340 nM | 10%
11 | Nc1ncnc2c1ncn2[C@@H]1O[C@H](C(=O)NCCCl)[C@@H](O)[C@H]1O | 32000 nM | 890 nM | 322 nM | 3.6 | 248 nM | 410 nM | 
